What was measured:
[1] = test system: human immunodeficiency virus ("HIV"); conditions: non-toxic concentration of 4 μg ozone per ml of serum; cited from earlier work
Candida tropicalis = conditions: in 0.30 minutes, ozone-demand free water; cited from earlier work
Poliovirus type I = conditions: cited from earlier work
Escherichia coli = conditions: in 19 minutes, raw waste water; cited from earlier work
Naegleria gruberi = conditions: in 1.1 minutes, ozone-demand free phosphate buffer solution; cited from earlier work
[2] = relative to chlorine; cited from earlier work
[3] = test system: bacterial spores (Bacillus subtilis v. globigii); conditions: within 1.5-2 minutes, water purged with 3% ozone by weight; cited from earlier work
[4] = test system: Escherichia coli (ATCC number 25922); test: cold water washing of raw cabbage inoculated with E. coli suspension; conditions: 25 g raw cabbage, 10 minutes, 21° C., pH 7.5 (ozone only) or 8.5 (with FIT 0.6 g/L)

For O=[O+][O-] [ozone], the “log reduction in the infectious titer” value [1] is given as “six”, the “ozone concentration giving a 99% reduction” value (Candida tropicalis) is given as 0.02 mg/L and the “ozone concentration giving a 99% reduction” value (Poliovirus type I) is given as 0.2 mg/L. The “ozone concentration giving a 99% reduction” value (Escherichia coli) was 2.2 mg/L, the “ozone concentration giving a 99% reduction” value (Naegleria gruberi) was 1.2 mg/L and the “rate of disinfection, times faster than chlorine” value [2] was “more than 3,000 times”. The “log reduction of bacterial spores” value [3] was “four” and the “decrease in E. coli relative to the control” value [4] was 93%.

Reference: patent US6458398B1, “Cold water disinfection of foods” (Eco Pure Food Safety Systems, Inc., priority 1999, dated 2002)
